Reference: patent publication US9175283B2, “Use polysaccharides for promotion of enzymatic activity” (Genzyme Corporation, priority 2006, dated 2015)

Test system: sialidase, β-galactosidase, and β-hexosaminidase
Assay: Promotion of Target Enzyme activity: oligosaccharide modification of column-bound GCR substrate, FACE assay
Type: biochemical
Conditions: pH 5.7; for % Modification (FACE Assay): additive at 10%, sialidase 210, β-galactosidase 33, β-hexosaminidase 2500 U/L sv, approx. 24 hours, room temperature; for Promotion of enzymatic activity of the Target Enzymes versus no additive (in words): additive concentrations of Table 9
Source text: The FACE assay is a preferred method of monitoring the enzymatic activity of the oligosaccharide/polysaccharide enzymes (such as the Target Enzymes in certain Examples herein) by determining the extent of modification of a substrate (including, but not limited to, a protein, glycoprotein or oligosaccharide) of a Target Enzyme(s). Using a FACE assay, a higher FACE number is indicative of a greater degree of modification and a greater degree of Target Enzyme(s) activity. The FACE assays are known in the art.
In the Examples herein, when the Target Enzymes were sialidase, β-galactosidase, and β-hexosaminidase, a FACE assay was used to determine the percentage of modified oligosaccharide species in the GCR substrate. Specifically, GCR was treated with N-glycanase (approximately 8 U of N-glycanase per 40 μg GCR) to release intact N-linked oligosaccharide chains. The released oligosaccharides were then labeled with the fluorophore: ANTS (8-aminonapthalene-1,3,6-trisulfonic acid and separated on oligosaccharide profiling gel (Glyko®/Prozyme®, San Leandro, Calif.) as per the manufacturers instructions. A dextran reference ladder standard (Glyko®)/Prozyme®, San Leandro, Calif.) was also run on the gel along with reference oligosaccharides, GlcNAc2(+Fuc)Man3 and GlcNAc2(-Fuc)Man3, Glyko®/Prozyme®, San Leandro, Calif.). Bands on the gel were then quantified by scanning the gel for fluorescence using a SE2000 imager system with fluorescence imaging software (Glyko®/Prozyme®, San Leandro, Calif.).
The ratio (%) of the fluorescent intensity of the bands representing two core structures, GlcNAc2(Fuc)Man3 and GlcNAc2Man3 (core structures), to the total intensity of bands with mobility ≦GlcNac2Man3 in a given lane provided the percentage of modified GCR. Since GCR acts as a substrate for the three Target Enzymes, sialidase, β-galactosidase, and β-hexosaminidase, the FACE results correlate to the activity of the Target Enzymes against GCR. For GCR, the FACE values can range from about 0 to about 100%, about 3% to about 90% and about 5% to about 85%.
HES was prepared as a 20% (w/v) stock solution by dissolving solid HES into buffer of the appropriate pH. For this Example, 100 mM sodium citrate, 5 mM calcium chloride, pH 5.7 buffer was used. The 20% […] stock solution was used to make a final concentration of 5% w/L sv HES in the Target Enzyme cocktails. […]
Target Enzyme cocktails containing three Target Enzymes were made by combining sialidase (210 U/L sv), β-galactosidase (33 U/L sv), β-hexosaminidase (2500 U/L sv), and either Hmxl (14 mL/L sv) or HES (5% w/L sv). […] The enzymatic activity of GCR is measured using standard assays (see, e.g., U.S. Pat. No. 6,451,600). […]

| Compound | % Modification (FACE Assay) [%] | Promotion of enzymatic activity of the Target Enzymes versus no additive (in words) |
| --- | --- | --- |
| CC(O)CO (stereo not shown) [Propylene glycol, propylene glycol] | 51.1 | did not show Target Enzyme promotion |
| OCC(O)CO [Glycerol, glycerol] | 34.2 | showed a diminution of Target Enzyme promotion |
